Columns and labels:
hemoglobin A1c level = conditions: WO 2005/095436; cited from earlier work
[1] = rat, in vivo
Description: This example was performed in order to investigate an effect of 3-O-β-D-glucopyranosyl-4-methylergost-7-en-3-ol and a squeezed liquid of Aloe vera on an amount of food ingestion (amount of food consumption) and increase in body weight (amount of increased body weight) of rats.
The sample was dissolved in DMSO, and the concentration of the sample was adjusted with distilled water to 10 μg/ml, to thereby prepare Test Sample C. Meanwhile, a crude solution was obtained by crushing Aloe vera gel with a juicer, and then was subjected to filtration with a No. 200 mesh (manufactured by NBC), to thereby obtain a squeezed liquid of the Aloe vera gel as Test Sample D. It was confirmed that the crush extract of Aloe vera gel contained 0.1% of 3-O-β-D-glucopyranosyl-4-methylergost-7-en-3-ol by mass. In addition, final concentration of DMSO was adjusted to 0.2%. […]
42 days after initiation of the administration, the body weights of the rats were measured, and differences between the body weights on the 42nd day and those measured before the initiation of the administration were regarded as amounts of increased body weights. In addition, weights of food consumed per day were measured once a week from the day of the initiation of the administration, and an average of the weights was regarded as an amount of food consumption per day.

[2] = tested on: ZDF (Zucker Diabetic Fatty) rats; experiment: Inhibitory effect on visceral fat accumulation: mesenteric fat weight in ZDF rats (Example 1); assay type: in vivo; conditions: for Mesenteric fat weight: ZDF rats on high-fat diet, oral once a day for 44 days, measured on 45th day, A-1 25 μg/kg, A-2 2.5 μg/kg compound, B-1 2.5 g/kg, B-2 0.125 g/kg Aloe vera solid content; for Mesenteric fat weight as compared with the group administered with the negative sample (decrease to) / Effect of inhibiting visceral fat accumulation (statistical significance, Tukey-Kramer's test): ZDF rats, 45th day; for Mesenteric fat weight as compared with the group administered with the negative sample (decrease to): negative sample 6.83±1.10 g; for Effect of inhibiting visceral fat accumulation (statistical significance, Tukey-Kramer's test): versus negative sample
Description: The squeezed liquid of Aloe vera gel was diluted 20 folds to prepare Test Sample B-2.
On 45th day from the initiation of the administration, mesenteric fat weights were measured as the visceral fat.

Structure (SMILES)	Effect on hemoglobin A1c level and hyperglycemia (hemoglobin A1c level)	Amount of food consumption as compared with the negative sample group [1]	Mesenteric fat weight [2]	Mesenteric fat weight as compared with the group administered with the negative sample (decrease to) [2]	Effect of inhibiting visceral fat accumulation (statistical significance, Tukey-Kramer's test) [2]
CC(C)C(C)CCC(C)C1CCC2C3=CCC4C(C)C(OC5OC(CO)C(O)C(O)C5O)CCC4(C)C3CCC21C [Compound 1, 3-O-β-D-glucopyranosyl-4-methylergost-7-en-3-ol]	effect of decreasing hemoglobin A1c level and improving hyperglycemia	does not affect the amount of food ingestion			
CC(C)C(C)CCC(C)C1CCC2C3=CCC4C(C)C(OC5OC(CO)C(O)C(O)C5O)CCC4(C)C3CCC21C [Test Sample A-1, 3-O-β-D-glucopyranosyl-4-methylergost-7-en-3-ol]			3.15 ± 0.28 g	46.2%	statistically significant effects of inhibiting visceral fat accumulation
CC(C)C(C)CCC(C)C1CCC2C3=CCC4C(C)C(OC5OC(CO)C(O)C(O)C5O)CCC4(C)C3CCC21C [Test Sample A-2, 3-O-β-D-glucopyranosyl-4-methylergost-7-en-3-ol]			4.99 ± 0.53 g	73.1%	statistically significant effects of inhibiting visceral fat accumulation
CC(C)C(C)CCC(C)C1CCC2C3=CCC4C(C)C(OC5OC(CO)C(O)C(O)C5O)CCC4(C)C3CCC21C [Test Sample C, 3-O-β-D-glucopyranosyl-4-methylergost-7-en-3-ol]		did not show significant increase or decrease in amount of food consumption			
